In US20110105515A1, “TARGETING THE ONCOPROTEIN NUCLEOPHOSMIN” (President and Fellows of Harvard College, priority 2007, published 2011):
Like-named read-outs stand apart in the source and are kept apart here.

What was measured:
HCC-2998 = HCC-2998 (Colon Cancer), 48 hours, SRB
BT-549 [1] = test: cells; conditions: Homo sapiens, BT-549, 48 h
U251 = U251 (CNS Cancer), 48 hours, SRB
MDA-MB-468 [2] = test: cells; conditions: Homo sapiens, MDA-MB-468, 48 h
K-562 = K-562 (Leukemia), 48 hours, SRB
MDA-MB-468 [3] = conditions: MDA-MB-468 (Breast Cancer), 48 hours, SRB
TK-10 [4] = conditions: TK-10 (Renal Cancer), 48 hours, SRB
SK-MEL-5 [5] = test: cells; conditions: Homo sapiens, SK-MEL-5, 48 h
M14 [6] = conditions: M14 (Melanoma), 48 hours, SRB
MOLT-4 = MOLT-4 (Leukemia), 48 hours, SRB
CCRF-CEM [7] = conditions: CCRF-CEM (Leukemia), 48 hours, SRB
NCI-H522 = NCI-H522 (Non-Small Cell Lung Cancer), 48 hours, SRB
NCI/ADR-RES = NCI/ADR-RES (Breast Cancer), 48 hours, SRB
ACHN = ACHN (Renal Cancer), 48 hours, SRB
T-47D = T-47D (Breast Cancer), 48 hours, SRB
SF-539 = SF-539 (CNS Cancer), 48 hours, SRB
SK-OV-3 = SK-OV-3 (Ovarian Cancer), 48 hours, SRB
BT-549 [8] = conditions: BT-549 (Breast Cancer), 48 hours, SRB
SK-MEL-5 [9] = conditions: SK-MEL-5 (Melanoma), 48 hours, SRB
OVCAR-8 = OVCAR-8 (Ovarian Cancer), 48 hours, SRB
TK-10 [10] = test: cells; conditions: Homo sapiens, TK-10, 48 h
NCI-H226 = NCI-H226 (Non-Small Cell Lung Cancer), 48 hours, SRB
M14 [11] = test: cells; conditions: Homo sapiens, M14, 48 h
MCF7 = MCF7 (Breast Cancer), 48 hours, SRB
SR = SR (Leukemia), 48 hours, SRB
SN12C = SN12C (Renal Cancer), 48 hours, SRB
CCRF-CEM [12] = test: cells; conditions: Homo sapiens, 48 h
UACC-257 = UACC-257 (Melanoma), 48 hours, SRB
OVCAR-4 = OVCAR-4 (Ovarian Cancer), 48 hours, SRB
UO-31 = UO-31 (Renal Cancer), 48 hours, SRB
RXF 393 = RXF 393 (Renal Cancer), 48 hours, SRB
PC-3 = PC-3 (Prostate Cancer), 48 hours, SRB

## Cc1cc(C)cc(-c2ccc3c(c2)[N+]([O-])=C2C3=C[C@@]34NC(=O)C5(CCCN5C3=O)CC4C2(C)C)c1 (stereo partly shown) [Biphenyl Analogue]
HCC-2998
  TGI: 1060 nM
BT-549 [1]
  GI50: 95.3 nM
BT-549 [1]; read-out: LC50
  CC50: 1700 nM
U251
  TGI: 273 nM
MDA-MB-468 [2]
  GI50: 160 nM
MDA-MB-468 [2]; read-out: LC50
  CC50: 3030 nM
K-562
  TGI: 358 nM
MDA-MB-468 [3]
  TGI: 590 nM
TK-10 [4]
  TGI: 955 nM
SK-MEL-5 [5]
  GI50: 166 nM
SK-MEL-5 [5]; read-out: LC50
  CC50: 629 nM
M14 [6]
  TGI: 556 nM
MOLT-4
  TGI: 604 nM
CCRF-CEM [7]
  TGI: 421 nM
NCI-H522
  TGI: 297 nM
NCI/ADR-RES
  TGI: 2270 nM
ACHN
  TGI: 618 nM
T-47D
  TGI: 330 nM
SF-539
  TGI: 445 nM
SK-OV-3
  TGI: 1190 nM
BT-549 [8]
  TGI: 379 nM
SK-MEL-5 [9]
  TGI: 324 nM
OVCAR-8
  TGI: 1030 nM
TK-10 [10]
  GI50: 263 nM
TK-10 [10]; read-out: LC50
  CC50: 3380 nM
NCI-H226
  TGI: 707 nM
M14 [11]
  GI50: 205 nM
M14 [11]; read-out: LC50
  CC50: 2180 nM
MCF7
  TGI: 984 nM
SR
  TGI: 407 nM
SN12C
  TGI: 614 nM
CCRF-CEM [12]
  GI50: 105 nM
UACC-257
  TGI: 1360 nM
OVCAR-4
  TGI: 1720 nM
UO-31
  TGI: 731 nM

## CC1(C)C=Cc2c(ccc3c4c(n(O)c23)C(C)(C)C2CC35CCCN3C(=O)C2(NC5=O)C4SCC(NC(=O)CCC(N)C(=O)O)C(=O)NCC(=O)O)O1 (stereo not shown) [Glutathione Adduct]
HCC-2998
  GI50: 759 nM
  TGI: 1510 nM
HCC-2998; read-out: LC50
  CC50: 3020 nM
U251
  GI50: 819 nM
  TGI: 1970 nM
U251; read-out: LC50
  CC50: 4760 nM
K-562
  GI50: 1010 nM
  TGI: 4660 nM
K-562; read-out: LC50
  CC50: > 50000 nM
MDA-MB-468 [3]
  GI50: 674 nM
  TGI: 1620 nM
TK-10 [4]
  GI50: 1090 nM
  TGI: 5460 nM
TK-10 [4]; read-out: LC50
  CC50: 17400 nM
M14 [6]
  GI50: 996 nM
  TGI: 2630 nM
M14 [6]; read-out: LC50
  CC50: 11200 nM
MOLT-4
  GI50: 425 nM
  TGI: 1750 nM
MOLT-4; read-out: LC50
  CC50: 20600 nM
CCRF-CEM [7]
  GI50: 672 nM
  TGI: 2030 nM
CCRF-CEM [7]; read-out: LC50
  CC50: 35000 nM
NCI-H522
  GI50: 727 nM
  TGI: 1950 nM
NCI-H522; read-out: LC50
  CC50: 6290 nM
NCI/ADR-RES
  GI50: 3940 nM
  TGI: 14000 nM
NCI/ADR-RES; read-out: LC50
  CC50: 44700 nM
ACHN
  GI50: 961 nM
  TGI: 3220 nM
ACHN; read-out: LC50
  CC50: 12300 nM
RXF 393
  GI50: 829 nM
  TGI: 1750 nM
RXF 393; read-out: LC50
  CC50: 3690 nM
T-47D
  GI50: 319 nM
  TGI: 2470 nM
T-47D; read-out: LC50
  CC50: 46000 nM
SF-539
  GI50: 838 nM
  TGI: 2030 nM
SF-539; read-out: LC50
  CC50: 4900 nM
SK-OV-3
  GI50: 1300 nM
  TGI: 5060 nM
SK-OV-3; read-out: LC50
  CC50: 16100 nM
BT-549 [8]
  GI50: 923 nM
  TGI: 2700 nM
BT-549 [8]; read-out: LC50
  CC50: 10500 nM
SK-MEL-5 [9]
  GI50: 826 nM
  TGI: 1860 nM
SK-MEL-5 [9]; read-out: LC50
  CC50: 4170 nM
OVCAR-8
  GI50: 1600 nM
  TGI: 6380 nM
OVCAR-8; read-out: LC50
  CC50: 29800 nM
NCI-H226
  GI50: 802 nM
  TGI: 2290 nM
NCI-H226; read-out: LC50
  CC50: 8330 nM
MCF7
  GI50: 840 nM
  TGI: 3180 nM
MCF7; read-out: LC50
  CC50: 33600 nM
SR
  GI50: 228 nM
  TGI: 1280 nM
SR; read-out: LC50
  CC50: 16700 nM
SN12C
  GI50: 1510 nM
  TGI: 5640 nM
SN12C; read-out: LC50
  CC50: 17800 nM
UACC-257
  GI50: 1070 nM
  TGI: 5430 nM
UACC-257; read-out: LC50
  CC50: 17300 nM
OVCAR-4
  GI50: 742 nM
  TGI: 2490 nM
OVCAR-4; read-out: LC50
  CC50: 10100 nM
PC-3
  GI50: 906 nM
  TGI: 2590 nM
PC-3; read-out: LC50
  CC50: 11600 nM
UO-31
  GI50: 779 nM
  TGI: 4070 nM
UO-31; read-out: LC50
  CC50: 15000 nM
